Assay results as given in US10251889B2, “Substituted pyrazolo[1,5-a]pyrimidine compounds as Trk kinase inhibitors” (Array BioPharma, Inc., priority 2009, dated 2019).

target: Jak2 (human Jak2 kinase domain, amino acids 808-1132) (Homo sapiens (Human), UniProt O60674); assay: Jak2 inhibition assay (Omnia kinase assay); type: biochemical; settings: read-out: Jak2 Enzyme (% inhibition at 1000 nM), Table 1; 1000 nM test compound
Sequence (O60674 808-1132): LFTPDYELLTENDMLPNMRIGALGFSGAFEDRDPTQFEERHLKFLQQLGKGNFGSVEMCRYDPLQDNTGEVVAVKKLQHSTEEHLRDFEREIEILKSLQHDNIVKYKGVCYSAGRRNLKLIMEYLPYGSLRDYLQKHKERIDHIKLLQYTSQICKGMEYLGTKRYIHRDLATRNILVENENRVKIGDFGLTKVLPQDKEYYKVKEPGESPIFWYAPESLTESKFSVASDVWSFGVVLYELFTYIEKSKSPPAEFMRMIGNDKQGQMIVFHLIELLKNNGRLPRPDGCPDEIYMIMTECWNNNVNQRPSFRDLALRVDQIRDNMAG

Row | SMILES | inhibition at 1 µM
1 | COc1ccc(F)cc1[C@H]1CCCN1c1ccn2ncc(C(=O)NC[C@@H](O)CO)c2n1 [Example 56, N—((R)-2,3-dihydroxypropyl)-5-((R)-2-(5-fluoro-2-methoxyphenyl)pyrrolidin-1-yl)pyrazolo[1,5-a]pyrimidine-3-carboxamide] | 28%
2 | NS(=O)(=O)CCNC(=O)c1cnn2ccc(N3CCC[C@@H]3c3cc(F)ccc3F)nc12 [Example 47, (R)-5-(2-(2,5-difluorophenyl)pyrrolidin-1-yl)-N-(2-sulfamoylethyl)pyrazolo[1,5-a]pyrimidine-3-carboxamide] | 37.3%
3 | CC(C)NC(=O)c1cnn2ccc(N3C[C@@H](O)C[C@@H]3c3cccc(F)c3)nc12 [Example 217, 5-((2R,4S)-2-(3-fluorophenyl)-4-hydroxypyrrolidin-1-yl)-N-isopropylpyrazolo[1,5-a]pyrimidine-3-carboxamide] | 61.7%
4 | O=C(NCCO)c1cnn2ccc(N3CCC[C@@H]3c3cncc(F)c3)nc12 [Example 112, (R)-5-(2-(5-fluoropyridin-3-yl)pyrrolidin-1-yl)-N-(2-hydroxyethyl)pyrazolo[1,5-a]pyrimidine-3-carboxamide] | 3.2%
5 | Cn1cc(F)cc([C@H]2CCCN2c2ccn3ncc(C(=O)N[C@@H]4CCCC[C@H]4O)c3n2)c1=O [Example 234, 5-((R)-2-(5-fluoro-1-methyl-2-oxo-1,2-dihydropyridin-3-yl)pyrrolidin-1-yl)-N-((1R,2R)-2-hydroxycyclohexyl)pyrazolo[1,5-a]pyrimidine-3-carboxamide] | 5.3%
6 | CC(C)[C@@H](CO)NC(=O)c1cnn2ccc(N3CCC[C@@H]3c3cc(F)ccc3F)nc12 [Example 179, 5-((R)-2-(2,5-difluorophenyl)pyrrolidin-1-yl)-N-((S)-1-hydroxy-3-methylbutan-2-yl)pyrazolo[1,5-a]pyrimidine-3-carboxamide] | -0.2%
7 | COc1ncc(F)cc1[C@H]1CCCN1c1ccn2ncc(C(=O)NCC(O)CO)c2n1 (stereo partly drawn) [Example 149, N-(2,3-dihydroxypropyl)-5-((R)-2-(5-fluoro-2-methoxypyridin-3-yl)pyrrolidin-1-yl)pyrazolo[1,5-a]pyrimidine-3-carboxamide] | 10.2%
8 | O=C(NC1CCC[C@@H]1O)c1cnn2ccc(N3CCCC3c3cncc(F)c3)nc12 (stereo partly drawn) [Example 120, 5-((R)-2-(5-fluoropyridin-3-yl)pyrrolidin-1-yl)-N-((trans)-2-hydroxycyclopentyl)pyrazolo[1,5-a]pyrimidine-3-carboxamide] | 2.3%
9 | CN(C)C(=O)c1cnn2ccc(N3CCC[C@@H]3c3cc(F)ccc3F)nc12 [Example 27, (R)-5-(2-(2,5-difluorophenyl)pyrrolidin-1-yl)-N,N-dimethylpyrazolo[1,5-a]pyrimidine-3-carboxamide] | 1.3%
10 | CNC(=O)c1cnn2ccc(N3C[C@H](O)C[C@@H]3c3cccc(F)c3)nc12 [Example 43, 5-((2R,4R)-2-(3-fluorophenyl)-4-hydroxypyrrolidin-1-yl)-N-methylpyrazolo[1,5-a]pyrimidine-3-carboxamide] | 4.2%
11 | CNC(=O)c1cnn2ccc(N3CCC[C@@H]3c3cc(F)ccc3F)nc12 [Example 10, (R)-5-(2-(2,5-difluorophenyl)pyrrolidin-1-yl)-N-methylpyrazolo[1,5-a]pyrimidine-3-carboxamide] | 47.5%
12 | O=C(NC1(CO)CC1)c1cnn2ccc(N3CCC[C@@H]3c3cc(F)ccc3F)nc12 [Example 16, (R)-5-(2-(2,5-difluorophenyl)pyrrolidin-1-yl)-N-(1-(hydroxymethyl)cyclopropyl)pyrazolo[1,5-a]pyrimidine-3-carboxamide] | 31.7%
13 | COc1ncc(F)cc1[C@H]1CCCN1c1ccn2ncc(C(=O)N[C@H]3CC[C@H](O)C3)c2n1 [Example 154, 5-((R)-2-(5-fluoro-2-methoxypyridin-3-yl)pyrrolidin-1-yl)-N-((1S,3S)-3-hydroxycyclopentyl)pyrazolo[1,5-a]pyrimidine-3-carboxamide] | 64.4%
14 | O=C(c1cnn2ccc(N3CCC[C@@H]3c3cncc(F)c3)nc12)N1CCCC1 [Example 94, (R)-(5-(2-(5-fluoropyridin-3-yl)pyrrolidin-1-yl)pyrazolo[1,5-a]pyrimidin-3-yl)(pyrrolidin-1-yl)methanone] | 4.4%
15 | O=C(NC1CC1)c1cnn2ccc(N3CCC[C@@H]3c3cc(F)ccc3OCCN3CCOCC3)nc12 [Example 87, (R)—N-cyclopropyl-5-(2-(5-fluoro-2-(2-morpholinoethoxy)phenyl)pyrrolidin-1-yl)pyrazolo[1,5-a]pyrimidine-3-carboxamide] | 37.2%
16 | O=C(NC1CCC1)c1cnn2ccc(N3CCC[C@@H]3c3cncc(F)c3)nc12 [Example 101, (R)-N-cyclobutyl-5-(2-(5-fluoropyridin-3-yl)pyrrolidin-1-yl)pyrazolo[1,5-a]pyrimidine-3-carboxamide] | 26.2%
17 | O=C(N[C@H]1CC[C@H](C(=O)O)CC1)c1cnn2ccc(N3CCC[C@@H]3c3cc(F)ccc3F)nc12 [Example 33, Trans-4-(5-((R)-2-(2,5-difluorophenyl)pyrrolidin-1-yl)pyrazolo[1,5-a]pyrimidine-3-carboxamido)cyclohexanecarboxylic Acid] | 99.9%

Row | SMILES | inhibition at 1 µM
18 | COc1ncc(F)cc1[C@H]1CCCN1c1ccn2ncc(C(=O)NCC(C)(C)O)c2n1 [Example 158, (R)-5-(2-(5-fluoro-2-methoxypyridin-3-yl)pyrrolidin-1-yl)-N-(2-hydroxy-2-methylpropyl)pyrazolo[1,5-a]pyrimidine-3-carboxamide] | 14.4%
19 | CC(C)(C#N)NC(=O)c1cnn2ccc(N3CCC[C@@H]3c3cc(F)ccc3F)nc12 [Example 38, (R)—N-(2-cyanopropan-2-yl)-5-(2-(2,5-difluorophenyl)pyrrolidin-1-yl)pyrazolo[1,5-a]pyrimidine-3-carboxamide] | 18.2%
20 | O=C(NCCO)c1cnn2ccc(N3CCCC3c3cc(F)ccc3F)nc12 (stereo not drawn) [Example 165, 5-(2-(2,5-difluorophenyl)pyrrolidin-1-yl)-N-(2-hydroxyethyl)pyrazolo[1,5-a]pyrimidine-3-carboxamide] | 26.8%
21 | N#CCNC(=O)c1cnn2ccc(N3CCC[C@@H]3c3cc(F)ccc3F)nc12 [Example 39, (R)—N-(cyanomethyl)-5-(2-(2,5-difluorophenyl)pyrrolidin-1-yl)pyrazolo[1,5-a]pyrimidine-3-carboxamide] | 30.4%
22 | O=C(N[C@H]1CC[C@H](O)C1)c1cnn2ccc(N3CCC[C@@H]3c3cncc(F)c3)nc12 [Example 105, 5-((R)-2-(5-fluoropyridin-3-yl)pyrrolidin-1-yl)-N-((1S,3S)-3-hydroxycyclopentyl)pyrazolo[1,5-a]pyrimidine-3-carboxamide] | 18.7%
23 | O=C(NCCN1CCC(O)CC1)c1cnn2ccc(N3CCC[C@@H]3c3cc(F)ccc3F)nc12 [Example 170, 5-((R)-2-(2,5-difluorophenyl)pyrrolidin-1-yl)-N-(2-(4-hydroxypiperidin-1-yl)ethyl)pyrazolo[1,5-a]pyrimidine-3-carboxamide] | 0.7%
24 | CNC(=O)c1cnn2ccc(N3C[C@@H](O)C[C@@H]3c3cccc(F)c3)nc12 [Example 218, 5-((2R,4S)-2-(3-fluorophenyl)-4-hydroxypyrrolidin-1-yl)-N-methylpyrazolo[1,5-a]pyrimidine-3-carboxamide] | 24.6%
25 | O=C(NC1CC1)c1cnn2ccc(N3CCC[C@@H]3c3cc(F)ccc3F)nc12 [Example 13, (R)—N-cyclopropyl-5-(2-(2,5-difluorophenyl)pyrrolidin-1-yl)pyrazolo[1,5-a]pyrimidine-3-carboxamide] | 41.4%
26 | C[C@@H](CO)NC(=O)c1cnn2ccc(N3CCC[C@@H]3c3cc(F)ccc3F)nc12 [Example 177, 5-((R)-2-(2,5-difluorophenyl)pyrrolidin-1-yl)-N-((S)-1-hydroxypropan-2-yl)pyrazolo[1,5-a]pyrimidine-3-carboxamide] | 26.2%
27 | COc1ncc(F)cc1[C@H]1CCCN1c1ccn2ncc(C(=O)NC(C)(C)C)c2n1 [Example 80, (R)—N-tert-butyl-5-(2-(5-fluoro-2-methoxypyridin-3-yl)pyrrolidin-1-yl)pyrazolo[1,5-a]pyrimidine-3-carboxamide] | 50.7%
28 | COCCOc1cc(F)cc([C@H]2CCCN2c2ccn3ncc(C(N)=O)c3n2)c1 [Example 78, (R)-5-(2-(3-fluoro-5-(2-methoxyethoxy)phenyl)pyrrolidin-1-yl)pyrazolo[1,5-a]pyrimidine-3-carboxamide] | 5.8%
29 | COc1ccc(F)cc1[C@H]1CCCN1c1ccn2ncc(C(=O)NC[C@H](O)CO)c2n1 [Example 55, N—((S)-2,3-dihydroxypropyl)-5-((R)-2-(5-fluoro-2-methoxyphenyl)pyrrolidin-1-yl)pyrazolo[1,5-a]pyrimidine-3-carboxamide] | 24.1%
30 | Cc1ncc(F)cc1[C@H]1CCCN1c1ccn2ncc(C(=O)N[C@H]3CN4CCC3CC4)c2n1 [Example 198, 5-((R)-2-(5-fluoro-2-methylpyridin-3-yl)pyrrolidin-1-yl)-N-((R)-quinuclidin-3-yl)pyrazolo[1,5-a]pyrimidine-3-carboxamide] | 1.6%
31 | CC1(O)CN(C(=O)c2cnn3ccc(N4CCC[C@@H]4c4cc(F)ccc4F)nc23)C1 [Example 32, (R)-(5-(2-(2,5-difluorophenyl)pyrrolidin-1-yl)pyrazolo[1,5-a]pyrimidin-3-yl)(3-hydroxy-3-methylazetidin-1-yl)methanone] | 8.6%
32 | O=C(NCC(F)F)c1cnn2ccc(N3CCC[C@@H]3c3cncc(F)c3)nc12 [Example 134, (R)-N-(2,2-difluoroethyl)-5-(2-(5-fluoropyridin-3-yl)pyrrolidin-1-yl)pyrazolo[1,5-a]pyrimidine-3-carboxamide] | 3.3%
33 | CONC(=O)c1cnn2ccc(N3CCC[C@@H]3c3cncc(F)c3)nc12 [Example 73, (R)-5-(2-(5-fluoropyridin-3-yl)pyrrolidin-1-yl)-N-methoxypyrazolo[1,5-a]pyrimidine-3-carboxamide] | 4.9%
